Assay results: paper PMC9799096, “ASK120067 potently suppresses B-cell or T-cell malignancies in vitro and in vivo by inhibiting BTK and ITK” (Frontiers in Pharmacology, 2022)

Legend:
[1] = target: Bruton’s tyrosine kinase (BTK) (Homo sapiens, UniProt Q06187); test: ELISA kinase activity assay with purchased BTK protein (MilliporeSigma #[…]-552); format: biochemical
[2] = target: T1, interleukin-2-inducible T cell kinase (ITK) (Homo sapiens, UniProt Q08881); test: ELISA kinase activity assay with purchased ITK protein (MilliporeSigma #[…]-660); format: biochemical
T1 sequence (Q08881 1-620): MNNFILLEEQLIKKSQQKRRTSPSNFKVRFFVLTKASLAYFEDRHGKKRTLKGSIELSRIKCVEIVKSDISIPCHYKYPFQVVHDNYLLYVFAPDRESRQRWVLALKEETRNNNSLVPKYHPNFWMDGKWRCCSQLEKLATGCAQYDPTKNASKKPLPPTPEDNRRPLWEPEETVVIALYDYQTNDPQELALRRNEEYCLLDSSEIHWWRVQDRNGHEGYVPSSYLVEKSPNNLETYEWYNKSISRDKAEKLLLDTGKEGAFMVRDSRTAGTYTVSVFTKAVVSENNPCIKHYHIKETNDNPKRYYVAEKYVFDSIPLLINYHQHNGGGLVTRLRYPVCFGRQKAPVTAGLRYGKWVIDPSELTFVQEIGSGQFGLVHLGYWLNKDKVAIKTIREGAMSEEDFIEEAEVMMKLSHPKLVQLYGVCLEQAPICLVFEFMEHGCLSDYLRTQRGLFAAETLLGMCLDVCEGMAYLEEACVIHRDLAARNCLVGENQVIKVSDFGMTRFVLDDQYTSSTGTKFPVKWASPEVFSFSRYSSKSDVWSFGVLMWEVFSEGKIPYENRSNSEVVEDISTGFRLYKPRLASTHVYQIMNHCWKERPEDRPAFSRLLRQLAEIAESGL

Bruton’s tyrosine kinase (BTK), sequence (Q06187 2-659): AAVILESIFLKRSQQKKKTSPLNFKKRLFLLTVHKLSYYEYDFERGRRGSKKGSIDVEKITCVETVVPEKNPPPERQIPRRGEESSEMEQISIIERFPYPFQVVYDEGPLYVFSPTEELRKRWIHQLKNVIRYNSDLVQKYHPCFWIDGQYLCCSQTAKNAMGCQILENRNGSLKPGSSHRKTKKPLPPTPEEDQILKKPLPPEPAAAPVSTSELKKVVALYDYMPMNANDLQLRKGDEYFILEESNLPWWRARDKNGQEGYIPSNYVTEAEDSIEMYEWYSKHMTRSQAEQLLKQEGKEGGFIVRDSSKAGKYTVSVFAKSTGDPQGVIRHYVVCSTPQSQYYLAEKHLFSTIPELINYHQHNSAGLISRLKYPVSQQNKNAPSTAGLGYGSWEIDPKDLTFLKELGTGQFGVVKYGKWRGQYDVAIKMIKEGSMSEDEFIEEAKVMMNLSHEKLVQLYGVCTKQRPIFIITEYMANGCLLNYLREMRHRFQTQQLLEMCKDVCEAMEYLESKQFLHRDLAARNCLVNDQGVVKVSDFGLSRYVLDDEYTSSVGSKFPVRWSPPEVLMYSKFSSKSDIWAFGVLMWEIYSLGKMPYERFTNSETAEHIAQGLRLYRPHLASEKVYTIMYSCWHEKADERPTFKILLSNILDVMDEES

`C=CC(=O)Nc1cc(Nc2ncc(Cl)c(Nc3ccc4ccccc4c3)n2)c(OC)cc1N(C)CCN(C)C` [ASK120067] was tested, and the IC50 [1] was 2.1 nM and the IC50 [2] was 0.4 nM.
